Marks after values point to notes of the source that are not given here. Peptide text beside a SMILES is read from it.
Experiments:
[1] = Binding to Echelon PPI Arrays (x9B); design: key: 0=no binding; 1=low binding; 2=medium binding; 3=high binding; conditions: 100 pmol PPI spot, colorimetric readout
Text: Binding of immodulator peptides to Echelon PPI Arrays. PPI arrays were purchased from Echelon Biosciences (Sal Lake City, UT) and used according to the manufacturer's recommendations. Colorimetric readout from each 100 pmol PPI spot in the array is expressed as 0=no binding, 1=low binding, 2=medium binding and 3=high binding. […] In addition, IM3 and IM5 show slight binding to PI(3,4,5)P3.

[2] = target: T1, AA111-228 DNA-binding domain of RXR-alpha (RXRa-DBD) (Homo sapiens, UniProt P19793); assay: Binding to RXRa-DBD (x3A); conditions: 1 ug/well RXRa-DBD, 800 ng/well SA488-labelled peptide; background subtracted
T1 construct: purchased Abcam, Cambridge, MA
T1 sequence (P19793 111-228): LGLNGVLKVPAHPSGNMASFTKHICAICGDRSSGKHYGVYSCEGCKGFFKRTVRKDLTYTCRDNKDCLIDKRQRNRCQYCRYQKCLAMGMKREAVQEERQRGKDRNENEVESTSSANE
Procedure: Binding of immodulator peptides to AA111-228 DNA-binding domain of RXR-alpha (RXRa-DBD). 1 ug/well recombinant RXRa-DBD (Abcam, Cambridge, MA) was adsorbed to wells of a 96-well plate for 60 minutes at RT, then blocked with 200 uL 1% BSA in PBS buffer overnight. Plate was washed and 800 ng/well Streptavidin-Alexa 488 conjugate (SA488)-labelled IM peptide was added. The plate was incubated for 60 min at room temperature, washed and counted in a standard fluorometer (excitation/emission 485/525 nm). Background (buffer alone) was subtracted.

[3] = Alexa488-SA-labelled IM1-IM6 binding to metal-charged NTA-coated plate (x2B d); conditions: no peptide background = 1.0
Procedure: NTA-metal-affinity fluorescence assay was performed using 96-well NTA-metal-coated plates readily available from commercial sources such as Qiagen (Germantown, MD). NTA was charged with ferrous or ferric iron, zinc, copper, calcium, vanadium, ruthenium, cobalt, titanium, manganese or other metals. 400 ng of FITC-labeled immodulator peptide (or biotinylated immodulator peptide complexed to Alexa-488-labeled streptavidin) in PBS buffer was added per plate. After incubation at room temperature for 60 minutes, excess peptide was washed off and peptide was detected by measuring fluorescence (excitation 490 nm, emmission 525 nm) in a fluorometer. • (a) Using FITC-labeled IM3 peptide (1 ug/well) in the fluorescent binding assay: • EDTA-treated control: 2,251±1,186 • Ferrous iron: 170,441±11,264 (p<0.001)* • Copper: 13,644±5566 (p<0.05)* • Calcium: 48,822±11,990 (p<0.01)* • *p values are relative to EDTA-treated control • (b) Competition binding assay to ferrous iron, calcium, copper and zinc-charged NTA-coated plates using FITC-labeled IM3 peptide (0.5 uM) and 8× (4 uM) unlabelled competitor peptides IM3N1, IM3N2 (*all comparisons to PBS control are p<0.01); # fluorescent value of binding to […] was set at 100.
Ferrous iron # (100±2.6*); Control (no metal): 6.4±3.1; Ferric iron: 94.1±6.6*; Calcium: 47.6±3.7*; Vanadium: 53.9±5.5*; Manganese: 54.4±11.2*; Cobalt: 25.4±2.3*; Copper: 58.4±6.4*; Zinc: 71.4±8.3*; Ruthenium: 67.8±8.3*; (d) Alexa488-SA-labelled immodulator peptide IM1, IM2, IM3, IM4, IM5, IM6 (400 ng/well) were bound to NTA-coated plate charged with the indicated metals: # background (no peptide) control set to 1.0;*p<0.05, **p<0.01 vs “no peptide”

[4] = Iron binding of separately labeled peptides (x2E e); conditions: each peptide labeled separately; IM3 = 100; ferric iron
Procedure: (§1) Experiments were conducted by the procedure described above. Ferric iron-charged NTA-coated 96-well plates were used as described. 1 ug/well immodulator peptide complexed to Alexa-488-labeled streptavidin in PBS buffer was added (60 min at room temperature). The plate was washed and counted in a standard fluorometer (excitation/emission: 485/525 nm). The results (fluorescence) show improved iron-binding by the three peptides extended C-terminally by the AVD, (dA)VD, and FVS tripeptides. **p<0.01 vs IM3 control IM3: 200±29; IM4: 45±37**; IM5: 130±77; IM3AVD: 434±29**; IM3dAVD: 418±28**; IM3FVS: 371±33** • (c) Competition assay. The same procedure was used as the preceding experiment, except that 375 ng/well labeled IM3 peptide was used, plus 10× of the indicated unlabeled peptide. ‘No competing peptide’ control value was set to 100. *p<0.05 vs “no peptide” control Competing Peptide/Fluorescence • None: 100±38; IM4: 125±26; IM3: 63±27*; IM5: 40±14*; IM3AVD: 10±28* • (d) Competition assay. The same procedure was used as the preceding experiment, except that labeled IM3AVD peptide was used. **p<0.01 vs “no competing peptide” control • None: 100±9; IM4: 144±44; IM3: 35±16**; IM5: 30±19**; IM3AVD: 9±19** • (e) The same procedure was used as the preceding experiment, except that each peptide was labeled with Alexa-488-labeled streptavidin in PBS buffer and used separately. Binding to IM3 was set to =100. *p<0.05, **p<0.01 vs IM3 control. (Labeled Peptide/Fluorescence) IM1: 1.8±0.4**; IM2: 3.0±1.8**; IM3: 100.0±16.8; IM4: 7.2±1.7*; IM5: 86.7±6.4; IM6: 85.9±14.9; IM3AVD:137.7±11.8*; IM3dAVD:147.4±22.9*; IM3FVS: 101.5±10.5.

[5] = test system: COL1 in HFF-1 dermal fibroblasts; assay: Collagen-1 ELISA in HFF-1 dermal fibroblasts (x11A); type: cell-based; conditions: peptide 2 uM, 72 hour; control (buffer) = 100
Procedure: (§2) Immune modulation functions of immodulator peptides have potential untility in the field of cosmetics. HFF-1 cell line was obtained from American Type Culture Collection (ATCC). Cells were grown in a T-75 flask in DMEM Medium containing 10% fetal bovine serum and penicillin-streptomycin at 37° C. in a humidified, 5% CO2 incubator. Cells ([…], 2,000 cells/well) were plated in a 96-well plate and incubated overnight at 37° C. in a humidified, 5% CO2 incubator. Next day, […] of compounds were added (quadruplicate wells). After 72 hour incubation with the compound, supernatants were collected for Collagen-1 ELISA assay and cell viability was measured in a luminometer after the addition of […] CellTiterGlo reagent (Promega Inc, Madison, WI) as recommended by the manufacturer.
Collagen stimulating activity of immodulator peptides in HFF-1 dermal fibroblasts. Peptides were added to cells at 2 uM. COL1 immunoreactivity was measured in the supernatants of cultured cells by ELISA using a rabbit monoclonal anti-COL1 primary antibody (Abcam, Cambridge, MA). Control (buffer) value of immunoreactivity was set to 100.

[6] = Binding to heparin-agarose spin column (x3D); conditions: 1 ug SA488-labelled peptide
Procedure: 1 ug Streptavidin-Alexa 488 conjugate (SA488)-labelled IM peptide in PBS buffer was loaded on a spin column packed with 0.2 ml bed volume heparin-agarose (G-Biosciences, St. Louis, MO). The column was centrifuged for 2 min at 2,000 G and the flow-through was collected. The column was then washed with 0.3 ml 1% BSA in PBS buffer and the column spin repeated. Flowthrough and wash were pooled and duplicate 20 uL aliquots counted in a standard fluorometer (excitation/emission 485/525 nm). Results are expressed as percentage of input counts that bound the heparin-agarose column, versus flowthrough. Percent counts bound to heparin-agarose resin are shown below. IM3, IM5 and IM6 peptides bind heparin-agarose in this assay.

[7] = Iron-binding competition assay with labeled IM3 (x2E c); conditions: 375 ng/well labeled IM3 plus 10x unlabeled peptide; no competing peptide = 100
Procedure: as §1

A375 cells = assay: A375 cell viability, CellTiterGlo (x10A); type: cell-based; conditions: 72 hours
Procedure: as §2, with “have great” for “have”, “of cancer. A375” for “of cosmetics. HFF-1”, “(ATCC). They” for “(ATCC). Cells”, “compound,” for “compound, supernatants were collected for Collagen-1 ELISA assay and”
Experiment x10A. Anti-cancer activity of immodulator peptides on A375 cells. A 96-well plate was seeded with 2,000 A375 cells per well in DMEM medium containing 10% FBS and PenStrep. After 24 hrs at 37 deg C., compounds and peptides were added (each treatment done in quadruplicate). After a further 72 hours incubation, 100 uL/well of CTG assay reagent purchased from Promega Inc. (Madison, WI) was added. Plate was read after 10 minutes, as recommended by the manufacturer. Peptides were added at 2 uM. The results of this experiment are shown below, expressed as percent survival ofA375 cells.

[8] = Strength of binding to iron, plate assay (x2E b); conditions: 1 ug/well peptide complexed to Alexa-488-streptavidin; ferric iron
Procedure: Immodulator peptides were extended C-terminally by three amino acids, to include a valine residue that is highly conserved in the “thyroglobulin type 1 motif”. The reasoning behind this attempt is that a longer conserved sequence might lead to a tighter fold overall, which might in turn result in increased metal-binding avidity. • (b) Strength of binding to iron was evaluated by plate assay.
as §1

[9] = Iron-binding competition assay with labeled IM3AVD (x2E d); conditions: labeled IM3AVD plus 10x unlabeled peptide; no competing peptide = 100
Procedure: as §1

binding to PI spot [1]	binding to PI(3,4,5)P3 spot [1]	binding to PI(4)P1 spot [1]	binding to PI(4,5)P2 spot [1]	fluorescence [2]	fluorescence ([3]; Calcium)	fluorescence ([3]; Copper)	fluorescence ([3]; Ferrous iron, 400 ng/well)	fluorescence ([3]; Zinc)	fluorescence of labeled peptide [4]	Percent Flowthrough [6] [%]	Percent retained [6] [%]	fluorescence of labeled IM3 with competing peptide [7]	fluorescence (iron binding) [8]	fluorescence of labeled IM3AVD with competing peptide [9]	Compound	COL1 immunoreactivity in supernatant [5]	percent survival of A375 cells (A375 cells; peptide 2 uM + Kin1400 4 uM (RIG-I agonist))	percent survival of A375 cells (A375 cells; peptide 2 uM, Buffer) [%]
0	0	0	1	587±192	15.1 ± 1.9**	2.4 ± 2.4**	20.6 ± 0.8**	8.4 ± 0.4**	85.9±14.9	2.0	98.0				N=C(N)NCCC[C@H](NC(=O)[C@H](CCCNC(=N)N)NC(=O)[C@H](CCC(N)=O)NC(=O)CNC(=O)[C@H](CCC(N)=O)NC(=O)[C@H](CO)NC(=O)[C@H](CO)NC(=O)[C@H](CCCNC(=N)N)NC(=O)[C@H](CS)NC(=O)[C@H](CCC(N)=O)NC(=O)[C@H](CCCNC(=N)N)NC(=O)[C@H](CCCCN)NC(=O)[C@H](CCCNC(=N)N)NC(=O)[C@H](Cc1ccc(O)cc1)NC(=O)[C@H](Cc1ccccc1)NC(=O)CNC(=O)[C@H](CCCNC(=N)N)NC(=O)[C@@H](N)Cc1c[nH]cn1)C(=O)NCC(=O)N1CCC[C@H]1C(=O)N[C@@H](CS)C(=O)N[C@@H](Cc1c[nH]c2ccccc12)C(=O)O [IM6] (H-HRGFYRKRQCRSSQGQRRGPCW-OH; N-terminus and C-terminus assumed)	112		
									137.7±11.8			10±28	434±29	9±19	CC(C)[C@H](NC(=O)[C@H](C)NC(=O)[C@H](Cc1c[nH]c2ccccc12)NC(=O)[C@H](CS)NC(=O)[C@H](Cc1ccccc1)NC(=O)CNC(=O)[C@H](CCCNC(=N)N)NC(=O)[C@H](CCCCN)NC(=O)[C@H](CCCNC(=N)N)NC(=O)CNC(=O)[C@H](CCCCN)NC(=O)[C@H](CO)NC(=O)[C@@H]1CCCN1C(=O)[C@H](CCCNC(=N)N)NC(=O)[C@H](CS)NC(=O)[C@H](CCC(N)=O)NC(=O)[C@H](CCCCN)NC(=O)[C@H](CCCCN)NC(=O)[C@H](CCCCN)NC(=O)[C@H](Cc1ccc(O)cc1)NC(=O)[C@H](Cc1ccccc1)NC(=O)CNC(=O)[C@H](CCCCN)NC(=O)[C@@H](N)CCCCN)C(=O)N[C@@H](CC(=O)O)C(=O)O [IM3AVD] (H-KKGFYKKKQCRPSKGRKRGFCWAVD-OH; N-terminus and C-terminus assumed)		12.5** percent	96.0

From patent US12102685B2, “Immodulator peptides covalently modified with small molecules” (priority 2020, dated 2024)
